Measured values published in article PMC7168327, “Designed Antimicrobial Peptides for Topical Treatment of Antibiotic Resistant Acne Vulgaris” (Antibiotics, 2020).
Values after ≈ are worked out from the molar mass of the structure shown. Square brackets hold non-standard residues; d marks the D form. Peptide text beside a SMILES is read from it. Orn = NCCC[C@H](N)C(=O)O

Columns and labels:
[1] = tested on: C. acnes HL043PA2 compared to human keratinocytes; assay type: cell-based; conditions: 8 h
Protocol: In evaluating the clinical utility of each of the candidate dAMPs for C. acnes treatment, the Therapeutic Index was determined. The Therapeutic Index is defined as the ratio of concentration at which the dAMP is active against the prokaryotic C. acnes pathogen without inducing cytotoxic damage to the surrounding mammalian cells. The EC10 and EC50 doses, defined as the concentrations required to kill 10% and 50% respectively of human keratinocytes following 8 h incubation with each of the Riptide dAMPs, are tabulated and graphed in Table 2 and Figure 3, respectively. The larger the Therapeutic Index, the greater the specificity of the dAMP for destroying C. acnes cells.
(§1) Single colonies were inoculated in Reinforced Clostridium Medium (RCM) broth supplemented with sodium thioglycolate and incubated at 37 °C, with shaking at 200 rpm, for 2 or 3 days to reach logarithmic growth (OD600nm = 1.0). Each C. acnes (1 × 10^6 CFU per mL) was incubated with dAMP or clindamycin at two-fold serial dilutions (0.5–32 μg per mL) in RCM on a 96-well microplate for 48 h. Three replicas were included for each test article concentration. Bacterial growth was measured by optical density at 600 nm to determine the MIC for each dAMP applied.
(§2) Noninvasive and real-time monitoring of mammalian cytotoxicity to assess the potential skin toxicity of the dAMPs was evaluated using bioluminescent human immortalized keratinocytes (HaCaT, AddexBio, San Diego, CA, USA). The bioluminescent variant of HaCaT was constructed by transfection with a luciferase gene (RediFect Red-Fluc-Puromycin, Cat# CL596002). Keratinocytes (1 × 10^4 cells, 100 μL) were plated in 96-well black-walled plates. The candidate dAMPs were 2-fold serially diluted from 1024 µg/mL in growth medium supplemented with 150 µg/mL D-luciferin. Each concentration was performed in triplicate, with the final volume being 200 μL. Imaging was performed at select times (0, 15, and 30 min and 1, 3, 5, and 8 h) after the addition of the dAMP, and compared to concurrently run vehicle-control, using an IVIS Lumina imaging system (Caliper Life Sciences, Inc., Hopkinton, MA, USA). For imaging, the 96-well plate was positioned on the stage (12.5-cm field of view), with an open emission filter, binning of 4, and f-stop 1 and a 1-min exposure time. Data analysis was performed using the Living Image software program (version 4.3, Caliper Life Sciences, Inc.). The dAMP concentrations required to kill 10% and 50% of keratinocytes were determined using GraphPad Prism 7 (GraphPad Software, San Diego, CA, USA).

[2] = tested on: bioluminescent human immortalized keratinocytes (HaCaT); test: Mammalian cytotoxicity, bioluminescent human keratinocytes; assay type: cell-based; conditions: 8 h
Protocol: as §2

C. acnes HL043PA1 = assay type: cell-based, Cutibacterium acnes; conditions: HL043PA1, 48 h
Protocol: (§3) The ten antibiotic resistant C. acnes clinical isolates were acquired from BEI resources with the two reference strains obtained from American Type Culture Collection (ATCC, Manassas, VA, USA). C. acnes is a relatively slow-growing, typically aerotolerant anaerobic so all in vitro C. acnes experiments were performed under anaerobic conditions.
as §1

[3] = tested on: ten C. acnes clinical isolates and two C. acnes ATCC reference strains; assay type: cell-based, Cutibacterium acnes; conditions: for in vitro anti-bacterial activity against the C. acnes bacterial strains (in words): 0.5–32 μg/mL concentration range evaluated; for MIC values against all C. acnes isolates: ten clinical isolates and two ATCC reference strains, 48 h
Protocol: as §3, §1

C. acnes HL038PA1 = assay type: cell-based, Cutibacterium acnes; conditions: HL038PA1, 48 h
Protocol: as §3, §1

C. acnes ATCC6919 = assay type: cell-based, Cutibacterium acnes; conditions: ATCC6919, 48 h
Protocol: as §3, §1

C. acnes HL007PA1 = assay type: cell-based, Cutibacterium acnes; conditions: HL007PA1, 48 h
Protocol: as §3, §1

C. acnes HL072PA1 = assay type: cell-based, Cutibacterium acnes; conditions: HL072PA1, 48 h
Protocol: as §3, §1

C. acnes HL082PA2 = assay type: cell-based, Cutibacterium acnes; conditions: HL082PA2, 48 h
Protocol: as §3, §1

C. acnes HL013PA1 = assay type: cell-based, Cutibacterium acnes; conditions: HL013PA1, 48 h
Protocol: as §3, §1

C. acnes HL056PA1 = assay type: cell-based, Cutibacterium acnes; conditions: HL056PA1, 48 h
Protocol: as §3, §1

C. acnes ATCC11827 = assay type: cell-based, Cutibacterium acnes; conditions: ATCC11827, 48 h
Protocol: as §3, §1

C. acnes HL043PA2 = assay type: cell-based, Cutibacterium acnes; conditions: HL043PA2, 48 h
Protocol: as §3, §1

C. acnes HL045PA1 = assay type: cell-based, Cutibacterium acnes; conditions: HL045PA1, 48 h
Protocol: as §3, §1

C. acnes HL053PA1 = assay type: cell-based, Cutibacterium acnes; conditions: HL053PA1, 48 h
Protocol: as §3, §1

CC[C@H](C)[C@H](NC(=O)[C@H](CCCCN)NC(=O)[C@H](CC(C)C)NC(=O)[C@H](CCCN)NC(=O)[C@H](CC(C)C)NC(=O)[C@H](CCCNC(=N)N)NC(=O)[C@H](C)NC(=O)[C@H](CCCNC(=N)N)NC(=O)[C@@H](NC(=O)[C@H](CCCN)NC(=O)[C@H](Cc1ccccc1)NC(=O)[C@H](CCCNC(=N)N)NC(=O)[C@H](C)NC(=O)[C@H](CCCCN)NC(=O)[C@@H](NC(=O)[C@H](CCCN)NC(=O)[C@@H](N)Cc1ccccc1)[C@@H](C)CC)C(C)C)C(N)=O [RP553] (H-F[Orn]IKARF[Orn]VRARL[Orn]LKI-NH2)
Therapeutic Index (EC50 / MIC) [1]: 16.8
EC50, concentration required to kill 50% of human keratinocytes [2]: 268 µg/mL
MIC (C. acnes HL043PA1): 16 µg/mL (≈ 7.72 µM)
in vitro anti-bacterial activity against the C. acnes bacterial strains (in words) [3]: modest anti-bacterial activity
MIC (C. acnes HL038PA1): 16 µg/mL (≈ 7.72 µM)
MIC (C. acnes ATCC6919): 8 µg/mL (≈ 3.86 µM)
MIC (C. acnes HL007PA1): 16 µg/mL (≈ 7.72 µM)
MIC (C. acnes HL072PA1): 16 µg/mL (≈ 7.72 µM)
MIC (C. acnes HL082PA2): 16 µg/mL (≈ 7.72 µM)
MIC (C. acnes HL013PA1): 8 µg/mL (≈ 3.86 µM)
MIC (C. acnes HL056PA1): 16 µg/mL (≈ 7.72 µM)
MIC (C. acnes ATCC11827): 16 µg/mL (≈ 7.72 µM)
MIC (C. acnes HL043PA2): 16 µg/mL (≈ 7.72 µM)
MIC (C. acnes HL045PA1): 16 µg/mL (≈ 7.72 µM)
MIC (C. acnes HL053PA1): 16 µg/mL (≈ 7.72 µM)

C[C@H](NC(=O)[C@H](Cc1ccccc1)NC(=O)[C@H](C)NC(=O)[C@H](Cc1ccccc1)NC(=O)[C@H](CCCN)NC(=O)[C@H](C)NC(=O)[C@H](Cc1ccccc1)NC(=O)[C@H](CCCN)NC(=O)[C@H](CCCN)NC(=O)[C@H](C)NC(=O)[C@H](Cc1ccccc1)NC(=O)[C@H](CCCN)NC(=O)[C@H](CCCN)NC(=O)[C@H](Cc1ccccc1)NC(=O)[C@H](CCCN)NC(=O)[C@H](CCCN)NC(=O)[C@H](C)NC(=O)[C@H](Cc1ccccc1)NC(=O)[C@H](CCCN)NC(=O)[C@H](CCCN)NC(=O)[C@H](C)NC(=O)[C@@H](N)Cc1ccccc1)C(=O)N[C@@H](Cc1ccccc1)C(N)=O [RP444] (H-FA[Orn][Orn]FA[Orn][Orn]F[Orn][Orn]FA[Orn][Orn]FA[Orn]FAFAF-NH2)
Therapeutic Index (EC10 / MIC) [1]: 1.63
Therapeutic Index (EC50 / MIC) [1]: 2.5
EC50, concentration required to kill 50% of human keratinocytes [2]: 20 µg/mL
MIC (C. acnes HL043PA1): 4 µg/mL (≈ 1.51 µM)
in vitro anti-bacterial activity against the C. acnes bacterial strains (in words) [3]: most active
MIC values against all C. acnes isolates [3]: 2 to 8 µg/mL
MIC (C. acnes HL038PA1): 4 µg/mL (≈ 1.51 µM)
MIC (C. acnes ATCC6919): 2 µg/mL (≈ 0.755 µM)
MIC (C. acnes HL007PA1): 4 µg/mL (≈ 1.51 µM)
MIC (C. acnes HL072PA1): 8 µg/mL (≈ 3.02 µM)
MIC (C. acnes HL082PA2): 2 µg/mL (≈ 0.755 µM)
MIC (C. acnes HL013PA1): 4 µg/mL (≈ 1.51 µM)
MIC (C. acnes HL056PA1): 4 µg/mL (≈ 1.51 µM)
MIC (C. acnes ATCC11827): 8 µg/mL (≈ 3.02 µM)
MIC (C. acnes HL043PA2): 8 µg/mL (≈ 3.02 µM)
MIC (C. acnes HL045PA1): 4 µg/mL (≈ 1.51 µM)
MIC (C. acnes HL053PA1): 4 µg/mL (≈ 1.51 µM)

CC[C@H](C)[C@H](NC(=O)[C@H](CCCN)NC(=O)[C@H](C)NC(=O)[C@H](CCCN)NC(=O)[C@H](CC(C)C)NC(=O)[C@H](CCCN)NC(=O)[C@@H](NC(=O)[C@H](CCCN)NC(=O)[C@@H](NC(=O)[C@H](CCCN)NC(=O)[C@H](C)NC(=O)[C@H](CCCN)NC(=O)[C@H](CC(C)C)NC(=O)[C@H](CCCN)NC(=O)[C@@H](N)Cc1ccccc1)[C@@H](C)CC)C(C)C)C(=O)N[C@@H](CCCN)C(=O)N[C@@H](CC(C)C)C(N)=O [RP554] (H-F[Orn]L[Orn]A[Orn]I[Orn]V[Orn]L[Orn]A[Orn]I[Orn]L-NH2)
Therapeutic Index (EC10 / MIC) [1]: 2.38
Therapeutic Index (EC50 / MIC) [1]: 3.88
EC50, concentration required to kill 50% of human keratinocytes [2]: 31 µg/mL
MIC (C. acnes HL043PA1): 4 µg/mL (≈ 2.12 µM)
in vitro anti-bacterial activity against the C. acnes bacterial strains (in words) [3]: most active
MIC values against all C. acnes isolates [3]: 2 to 8 µg/mL
MIC (C. acnes HL038PA1): 8 µg/mL (≈ 4.25 µM)
MIC (C. acnes ATCC6919): 4 µg/mL (≈ 2.12 µM)
MIC (C. acnes HL007PA1): 4 µg/mL (≈ 2.12 µM)
MIC (C. acnes HL072PA1): 8 µg/mL (≈ 4.25 µM)
MIC (C. acnes HL082PA2): 8 µg/mL (≈ 4.25 µM)
MIC (C. acnes HL013PA1): 2 to 4 µg/mL
MIC (C. acnes HL056PA1): 4 µg/mL (≈ 2.12 µM)
MIC (C. acnes ATCC11827): 8 µg/mL (≈ 4.25 µM)
MIC (C. acnes HL043PA2): 8 µg/mL (≈ 4.25 µM)
MIC (C. acnes HL045PA1): 4 µg/mL (≈ 2.12 µM)
MIC (C. acnes HL053PA1): 4 µg/mL (≈ 2.12 µM)

CC[C@H](C)[C@H](NC(=O)[C@H](CCCN)NC(=O)[C@H](CC(C)C)NC(=O)[C@H](CCCNC(=N)N)NC(=O)[C@@H](N)Cc1ccccc1)C(=O)N[C@@H](CCCCN)C(=O)N[C@@H](C)C(=O)N[C@@H](CCCN)C(=O)N[C@@H](CC(C)C)C(=O)N[C@@H](CCCCN)C(=O)N[C@H](C(=O)N[C@@H](CCCN)C(=O)N[C@H](C(=O)N[C@@H](CCCNC(=N)N)C(=O)N[C@@H](Cc1ccccc1)C(=O)N[C@@H](CCCCN)C(=O)N[C@@H](CC(C)C)C(N)=O)[C@@H](C)CC)C(C)C [RP568] (H-FRL[Orn]IKA[Orn]LKV[Orn]IRFKL-NH2)
Therapeutic Index (EC50 / MIC) [1]: 7.16
EC50, concentration required to kill 50% of human keratinocytes [2]: 229 µg/mL
MIC (C. acnes HL043PA1): >32 µg/mL
in vitro anti-bacterial activity against the C. acnes bacterial strains (in words) [3]: negligible activity
MIC (C. acnes HL038PA1): >32 µg/mL
MIC (C. acnes ATCC6919): >32 µg/mL
MIC (C. acnes HL007PA1): >32 µg/mL
MIC (C. acnes HL072PA1): >32 µg/mL
MIC (C. acnes HL082PA2): >32 µg/mL
MIC (C. acnes HL013PA1): >32 µg/mL
MIC (C. acnes HL056PA1): >32 µg/mL
MIC (C. acnes ATCC11827): >32 µg/mL
MIC (C. acnes HL043PA2): >32 µg/mL
MIC (C. acnes HL045PA1): >32 µg/mL
MIC (C. acnes HL053PA1): >32 µg/mL
